# Measurements reported in US4748161A, “Triterpenyl esters of organic acids and hypolipidemic agents composed of them” (Amano Pharmaceutical Co., Ltd., priority 1984, dated 1988).
# Test system: serum lipids and serum lipid hydroperoxide
# Assay: Pharmacological test method A for anti-hyperlipidemic activity (serum lipids, 2 weeks feeding)
# Assay type: in vivo, male Wistar strain rats
# Settings: for AI [(TC - HDL-C)/(HDL-C)] / HDL-C in serum / LPO in serum / PL in serum / TC in serum / TG in serum: 1% in hyperlipidemic diet, 2 weeks
# Experimental: Male Wistar strain rats (100±lg, each 10 rats were formed into a group) were used as test animals. Diet for the control group was prepared by thorough mixing of 20% casein, 62.5% glucose, 10% hydrogenated coconut oil, 2% agar powder, 4% vitamin-containing salt mixture, 1% cholesterol, and 0.5% cholic acid (this composition is described by Fukushima et al, in "Yakugaku Zassi", 89, No. 6, pp. 857-862 (1962)). Diet for the test groups was prepared by good mixing of 1% each of cycloartenol, 24-methylenecycloartanol, and cyclobranol with the control group's diet. Each rat was kept in a cage at a constant temperature of 23±1° C. and a constant R.H. of 55±5% for 2 weeks, during which 10 g/day of the prescribed was given. Finally the rats were fasted from food except water for 16 hours (from 4 p.m. of the 14th test day to 8 a.m. of the 15th test day), and under anesthesia with pentbarbital sodium (tradename: Nembutal), blood was taken from each rat through the descending abdominal arota. Then, TC, HDL-C, TG, PL, and LPO in the serum were measured in the manner that will be described below.
# A TC kit-K (supplied by Nippon Shoji Kaisha, Ltd.) was used. The principle of this determination is as follows: The ester of cholesterol in the serum is hydrolyzed with cholesterol-ester hydrolase into free cholesterol and fatty acids. All the free cholesterol is oxidized with cholesterol oxydase to form Δ^4 -cholestenone and hydrogen peroxide. Phenol and 4-aminoantipyrin are oxidatively condensed together by the formed hydrogen peroxide and peroxydase. The produced red quinone coloring matter is measured by colorimetry for absorbance at 500 nm using a spectrophotometer, thereby determining the TC:
# The color-developing liquid (3.0 ml) is well mixed with the sample serum (0.02 ml). The mixture once heated at 37° C. for 15 minutes, is measured for absorbance at 500 nm with a spectrophotometer. The found absorbance is denoted by EA. On the other hand, the color-developing liquid (3.0 ml) is well mixed with the standard solution. The mixture is treated and measured for absorbance at 500 nm in the same manner as the above. This found absorbance is denoted by ES. Both EA and ES are determined with reference to the value of the blank test conducted using the color-developing liquid (3.0 ml) alone. [formula]
# An HDL-C kit-N (supplied by Nippon Shoji Kaisha, Ltd.) was used. […] (VLDL) and lo density lipoprotein (LDL) in the serum is precipitated by the action of heparin. The precipitate is separated by centrifugation. High density lipoprotein (HDL) is dissolved in the separated supernatant. Esters of cholesterol in this fraction is hydrolyzed with cholesterol-ester hydrolase into free cholesterol and fatty acids. All the free cholesterol is oxidized with cholesterol oxydase to form Δ^4 -cholestenone and hydrogen peroxide. Phenol and 4-aminoantipyrine are oxidatively condensed together by the formed hydrogen peroxide and peroxydase. The produced red quinone coloring matter is measured by colorimetry for absorbance at 500 nm using a spectrophotometer, thereby determining the HDL-C.
# A PL kit-K (supplied by Nippon Shoji Kaisha, Ltd.) was used for the determination. Lecithin, sphingomyelin, and lysolecithin are decomposed by phospholipase D into choline and phosphatidic acid, N-acylsphingosyl phosphate, or lysophosphatidic acid, respectively. The resulting choline is quantitatively decomposed by choline oxydase into hydrogen peroxide and betaine. With this hydrogen peroxide, and aid of peroxydase, phenol and 4-aminoantipyrin are condensed into red quinone pigment, then the absorbance at 500 nm of which is measured with a spectrophotometer, thereby determining the PL.
# Serum TG level was determined by means of a triglyceride test kit (supplied by Wako Pure Chemical Industries, Ltd.) in which acetylacetone is used for a reagent, in the following manner: Serum proteins are precipitated, when isopropyl alcohol and the sample serum are mixed. […]
Molecule,AI [(TC - HDL-C)/(HDL-C)],HDL-C in serum [mg/dL],LPO in serum [nmol/mL],PL in serum [mg/dL],TC in serum [mg/dL],TG in serum [mg/dL],AI % of diff. (versus control group) [%],AI Diff. (versus control group),HDL-C % of diff. (versus control group),HDL-C Diff. (versus control group),LPO % of diff. (versus control group) [%],LPO Diff. (versus control group) [nmol/mL],PL % of diff. (versus control group),PL Diff. (versus control group),TC % of diff. (versus control group) [%],TC Diff. (versus control group) [mg/dL],TG % of diff. (versus control group),TG Diff. (versus control group),"AI Diff. (Table 2, versus control group) [mg/dL]"
"C=C(CCC(C)C1CCC2(C)C3CCC4C(C)(C)C(OC(=O)CCCCCCC/C=C\C/C=C\CCCCC)CCC45CC35CCC12C)C(C)C (stereo not drawn) [Example 93, 24-Methylenecycloartanyl ester of linoleic acid]",0.761,91.5,1.70,150.2,161.1,35.1,-37.7,-0.461,+5.8%,+5.0 mg/dl,-24.3,-0.54,-13.0%,-22.4 mg/dL,-16.2,-31.1,-3.3%,-1.2 mg/dL,–
"CC(C)=CCCC(C)C1CCC2(C)C3CCC4C(C)(C)C(OC(=O)C=Cc5ccc(N)cc5)CCC45CC35CCC12C (stereo not drawn) [Example 102, cycloartenyl ester of p-amino-cinnamic acid]",3.262,48.1,2.02,140.9,205.0,26.7,-58.4,-4.578,+30.4%,+11.2 mg/dl,-27.9,-0.78,-14.9%,-24.7 mg/dL,-37.2,-121.2,-21.5%,-7.3 mg/dL,–
"CC(C)=C(C)CCC(C)C1CCC2(C)C3CCC4C(C)(C)C(OC(=O)c5cccc(N)c5)CCC45CC35CCC12C (stereo not drawn) [Example 49, cyclobranyl-m-aminobenzoate]",1.288,58.0,2.02,128.4,132.7,18.3,-30.3,-0.559,-1.2%,-0.7 mg/dL,-13.7,-0.32,-13.5%,-20.0 mg/dL,-20.6,-34.4,-26.2%,-6.5 mg/dL,–
"CC(C)=C(C)CCC(C)C1CCC2(C)C3CCC4C(C)(C)C(OC(=O)c5ccccc5N)CCC45CC35CCC12C (stereo not drawn) [Example 47, cyclobranyl-o-aminobenzoate]",1.811,53.4,2.03,140.3,150.1,20.4,-1.9,-0.036,-9.0%,-5.3 mg/dL,-13.2,-0.31,-5.5%,-8.1 mg/dL,-10.2,-17.0,-17.7%,-4.4 mg/dL,–
"cycloartenyl-3,4-diacetoxycinnamate [Example 1]",1.410,72.0,2.03,173.7,173.5,38.0,-7.1,–,-11.6%,-9.5 mg/dL,-10.6,-0.24,+0.06%,+0.1 mg/dl,-15.4,-31.6,+10.9%,+3.7 mg/dl,-1.107
"COc1ccccc1C(=O)OC1CCC23CC24CCC2(C)C(C(C)CCC=C(C)C)CCC2(C)C4CCC3C1(C)C (stereo not drawn) [Example 13, cycloartenyl-o-methoxybenzoate]",1.388,60.5,1.94,122.8,144.5,26.2,-21.4,-0.379,+0.5%,+0.3 mg/dl,-23.3,-0.59,-10.2%,-13.9 mg/dL,-13.3,-22.1,-3.7%,-1.0 mg/dL,–
"CC(C)=CCCC(C)C1CCC2(C)C3CCC4C(C)(C)C(OC(=O)c5ccccc5[N+](=O)[O-])CCC45CC35CCC12C (stereo not drawn) [Example 16, cycloartenyl-o-nitrobenzoate]",1.529,59.4,2.04,140.1,150.2,22.0,-17.2,-0.318,+1.2%,+0.7 mg/dl,-12.8,-0.30,-5.6%,-8.3 mg/dL,-10.1,-16.9,-11.3%,-2.8 mg/dL,–
"COc1cc(C(=O)OC2CCC34CC35CCC3(C)C(C(C)CCC(C)=C(C)C)CCC3(C)C5CCC4C2(C)C)ccc1O (stereo not drawn) [Example 37, cyclobranyl-4-hydroxy-3-methoxybenzoate]",0.460,110.4,1.91,155.4,161.2,31.0,-54.1,-0.542,+14.8%,+14.2 mg/dl,-18.0,-0.42,-14.1%,-25.5 mg/dL,-16.3,-31.4,-6.6%,-2.2 mg/dL,–
"CC(C)=CCCC(C)C1CCC2(C)C3CCC4C(C)(C)C(OC(=O)c5ccccc5O)CCC45CC35CCC12C (stereo not drawn) [Example 8, cycloartenyl-o-hydroxybenzoate]",0.759,101.1,2.01,148.8,177.8,41.3,-54.9,-0.925,+25.0%,+20.2 mg/dl,-13.0,-0.30,-17.2%,-30.9 mg/dL,-18.1,-39.3,-3.5%,-1.5 mg/dL,–
